From US5804164A, “Water-soluble lipophilic contrast agents” (Research Corporation Technologies, Inc., priority 1996, dated 1998)

Test: Relaxivity of dialyzed liposomal Gd(BME-DTTA)
Assay type: physicochemical
Settings: dialyzed against saline pH 7.4 with HEPES and Chelex-100
Procedure: In this comparative example, the gadolinium complex of N^3,N^6 -bis(2'-myristoyloxyethyl)-1,8-dioxo-triethylenetetraamine-N,N,N',N'-tetraacetic acid [Gd(BME-DTTA)] was prepared and used for cardiac tissue imaging. Specifically, Gd(BME-DTTA) was synthesized and incorporated into liposomes using the procedure described in the Elgavish et al. article entitled "Fatty-acyl iminopolycarboxylates; lipophilic bifunctional contrast agents for NMR imaging", Magn. Reson. Med. 1991; Vol 22; pp. 57-67.
The liposomal Gd(BME-DTTA) was dialyzed at 4° C. for 24 hours against a saline solution (pH 7.4) that contained 0.9 weight % NaCl, 20 mmol/L HEPES, and 0.5 weight % Chelex-100 to remove any weakly bound Gd ions. […] (mmol/L)^-1.

relaxivity: 27.1±0.3 s^-1. (mmol/L)^-1
Substance: gadolinium complex of N^3,N^6 -bis(2'-myristoyloxyethyl)-1,8-dioxo-triethylenetetraamine-N,N,N',N'-tetraacetic acid [Gd(BME-DTTA)]
